How the values were obtained:
GluA2 = molecular target: T1, GluA2 (Rattus norvegicus, UniProt P19491); test: Radioligand binding at recombinant homomeric GluA2 in Sf9 membranes; settings: recombinant rat homomeric receptor, [3H]-(RS)-AMPA, mean ± SEM
T1 construct: made in house; host or cells: Sf9 insect cells (membranes)
Procedure: Ligand binding affinities at recombinant rat homomeric GluA2, GluK1−3, and GluK5 were determined as previously detailed. […] The filters were dried at 70 °C for 1 h, and 50 μL/well Microscint 20 (PerkinElmer, Waltham, MA, USA) was added. Radioactivity was detected with a TopCounter (PerkinElmer, Waltham, MA, USA). GluA2 and GluK5 assays were filtered on GF/C type filters using Millipore 12-well filtration manifolds (Merck Life Science, Søborg, Denmark) and washed twice with ice-cold assay buffer. Filters were placed in pony vials (PerkinElmer, Waltham, MA, USA), 3 mL of Ultima Gold scintillation fluid (PerkinElmer, Waltham, MA, USA) was added, and DPM (disintegrations per minute) were determined using a TriCarb 2900 scintillation counter (PerkinElmer, Waltham, MA, USA).
All competition curves (n ≥ 3 per ligand) were determined in triplicate. Data were analyzed using GraphPad Prism 6 (GraphPad Software, San Diego, CA, USA) to determine ligand affinity (Ki) and Hill coefficient (nH) using the one-site Ki and four-parameter logistics equations, respectively.

human mGluR4 = molecular target: T2, human mGluR4 (Homo sapiens, UniProt Q14833); test: mGluR4 functional assay (IP1 accumulation, HEK293A cells); type: cell-based; settings: 0.1 mM compound
T2 construct: expressed in transfected cells; host or cells: HEK293A (transient, Lipofectamine 2000)
T2 sequence (Q14833 33-912): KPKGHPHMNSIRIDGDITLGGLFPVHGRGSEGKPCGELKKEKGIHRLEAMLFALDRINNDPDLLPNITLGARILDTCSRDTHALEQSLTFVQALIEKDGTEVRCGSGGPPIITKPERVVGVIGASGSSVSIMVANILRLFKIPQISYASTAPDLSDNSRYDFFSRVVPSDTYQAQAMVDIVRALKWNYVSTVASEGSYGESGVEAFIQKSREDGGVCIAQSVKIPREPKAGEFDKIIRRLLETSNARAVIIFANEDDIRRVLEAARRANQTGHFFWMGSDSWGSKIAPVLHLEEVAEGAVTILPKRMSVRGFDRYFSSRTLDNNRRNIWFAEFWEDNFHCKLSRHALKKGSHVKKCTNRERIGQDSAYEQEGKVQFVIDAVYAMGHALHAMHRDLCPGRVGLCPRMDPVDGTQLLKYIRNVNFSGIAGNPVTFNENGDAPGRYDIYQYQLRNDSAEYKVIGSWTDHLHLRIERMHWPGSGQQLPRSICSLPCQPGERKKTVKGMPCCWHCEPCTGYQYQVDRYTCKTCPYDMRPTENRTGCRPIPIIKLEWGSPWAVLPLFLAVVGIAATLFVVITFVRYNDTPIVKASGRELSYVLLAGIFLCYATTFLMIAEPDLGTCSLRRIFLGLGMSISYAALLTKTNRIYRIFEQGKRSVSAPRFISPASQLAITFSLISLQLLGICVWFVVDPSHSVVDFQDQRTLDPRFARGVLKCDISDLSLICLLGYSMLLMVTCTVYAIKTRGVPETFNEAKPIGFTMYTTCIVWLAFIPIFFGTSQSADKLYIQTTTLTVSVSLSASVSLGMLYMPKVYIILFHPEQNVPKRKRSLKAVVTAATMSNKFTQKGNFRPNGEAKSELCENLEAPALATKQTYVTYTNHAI
Text: Dulbecco’s modified Eagle medium (DMEM), dialyzed fetal bovine serum (FBS), Opti-MEM, penicillin-streptomycin, Dulbecco’s phosphate-buffered saline (DPBS), Hank’s balanced salt solution (HBSS) and Lipofectamine 2000 were purchased from Thermo Fisher Scientific (Waltham, MA, USA). An IP-One Gq kit was purchased from Cisbio (Codolet, France). Quisqualate and poly-D-lysine (PDL) hydrobromide were purchased from Sigma-Aldrich (St. Louis, MO, USA). Falcon clear, tissue culture-treated 96-well plates were from Corning Inc. (Corning, NY, USA). OptiPlate-384 white, opaque 384-well plates were from PerkinElmer, (Waltham, MA, USA). L-AP4 and LY341495 were purchased from Tocris Bioscience (Bristol, UK). The HEK293A cells were a kind gift from Dr. Asuka Inoue (Tohoku University, Sendai, Japan). Plasmids encoding human mGluR4 and Flag-tagged human mGluR5 were kind gifts from Jesper M. Mathiesen (University of Copenhagen, København, Denmark). […]
Cell culture and IP1 Assay. […] IP1 accumulation was measured on an EnVision 2104 Multilabel Reader using a 340/60 nm excitation filter and 615/8.5 nm (donor) and 665/7.5 nm (acceptor) emission filters. HTRF ratios were calculated as the ratio of acceptor over donor emission (665 nm/615 nm) and converted to IP1 concentrations with an IP1 standard curve according to the instructions from the kit manufacturer.

T1 sequence (P19491 22-883): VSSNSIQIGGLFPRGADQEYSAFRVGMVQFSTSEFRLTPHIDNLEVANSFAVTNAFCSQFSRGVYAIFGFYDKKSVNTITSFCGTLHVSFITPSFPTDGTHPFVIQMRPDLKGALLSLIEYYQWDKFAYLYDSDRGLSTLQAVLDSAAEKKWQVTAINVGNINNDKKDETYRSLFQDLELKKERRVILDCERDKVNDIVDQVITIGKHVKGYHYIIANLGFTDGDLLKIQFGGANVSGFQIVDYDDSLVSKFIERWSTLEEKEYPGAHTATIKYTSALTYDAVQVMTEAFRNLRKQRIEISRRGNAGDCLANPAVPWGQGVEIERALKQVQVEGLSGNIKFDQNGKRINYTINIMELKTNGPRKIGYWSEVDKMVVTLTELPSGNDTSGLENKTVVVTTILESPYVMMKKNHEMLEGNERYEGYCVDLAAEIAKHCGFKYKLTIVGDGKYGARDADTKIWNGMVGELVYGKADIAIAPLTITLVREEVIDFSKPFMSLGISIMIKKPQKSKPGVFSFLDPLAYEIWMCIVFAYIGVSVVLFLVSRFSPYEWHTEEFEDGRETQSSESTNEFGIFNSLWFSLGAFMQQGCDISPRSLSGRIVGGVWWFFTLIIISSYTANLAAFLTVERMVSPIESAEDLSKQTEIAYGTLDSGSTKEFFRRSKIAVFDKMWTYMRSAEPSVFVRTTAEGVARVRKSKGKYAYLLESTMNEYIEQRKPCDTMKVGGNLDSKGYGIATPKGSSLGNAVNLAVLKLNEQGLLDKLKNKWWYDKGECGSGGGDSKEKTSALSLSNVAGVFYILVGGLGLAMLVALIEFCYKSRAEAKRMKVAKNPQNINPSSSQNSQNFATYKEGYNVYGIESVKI

## O=C(Nn1c(=O)c(=O)[nH]c2cc(C#Cc3cnc4cccnn34)ccc21)c1ccccc1 [Compound 28]
GluA2
  Ki: > 100 µM
Human mGluR4
  agonist or antagonist activity at mGluR4: neither agonistic nor antagonistic
other
  melting point: 314 to 315 °C
